Experiments:
KB3-1 (oral) = assay: MTT-microtiter plate tetrazolinium cytotoxicity assay, KB3-1; format: cell-based
KBV-1 (mdr-1) = assay: MTT-microtiter plate tetrazolinium cytotoxicity assay, KBV-1; format: cell-based
KBH1.0 + V (H033342r.) = assay: MTT-microtiter plate tetrazolinium cytotoxicity assay, KBH1.0 + V; format: cell-based; settings: continuous exposure 3-4 days
HELA (cervical) = assay: MTT-microtiter plate tetrazolinium cytotoxicity assay, HELA; format: cell-based; settings: continuous exposure 3-4 days
HCT116 (colon) = assay: MTT-microtiter plate tetrazolinium cytotoxicity assay, HCT116; format: cell-based
ZR-75-1 (breast) = assay: MTT-microtiter plate tetrazolinium cytotoxicity assay, ZR-75-1; format: cell-based
human topoisomerase I = target: T1, human topoisomerase I (Homo sapiens, UniProt P11387); assay: Test A. Topoisomerase I-mediated DNA cleavage assay; format: biochemical; settings: concentration relative to 2,3-dimethoxy-8,9-methylenedioxybenzo[i]phenanthridine (=1.0) producing same cleavage (approx. 10% DNA fragmentation); 30 min, 37° C.
T1 construct: unnamed fusion partner (recombinant fusion protein, T7 expression system); made in house; host or cells: E. coli
T1 sequence (P11387 1-765): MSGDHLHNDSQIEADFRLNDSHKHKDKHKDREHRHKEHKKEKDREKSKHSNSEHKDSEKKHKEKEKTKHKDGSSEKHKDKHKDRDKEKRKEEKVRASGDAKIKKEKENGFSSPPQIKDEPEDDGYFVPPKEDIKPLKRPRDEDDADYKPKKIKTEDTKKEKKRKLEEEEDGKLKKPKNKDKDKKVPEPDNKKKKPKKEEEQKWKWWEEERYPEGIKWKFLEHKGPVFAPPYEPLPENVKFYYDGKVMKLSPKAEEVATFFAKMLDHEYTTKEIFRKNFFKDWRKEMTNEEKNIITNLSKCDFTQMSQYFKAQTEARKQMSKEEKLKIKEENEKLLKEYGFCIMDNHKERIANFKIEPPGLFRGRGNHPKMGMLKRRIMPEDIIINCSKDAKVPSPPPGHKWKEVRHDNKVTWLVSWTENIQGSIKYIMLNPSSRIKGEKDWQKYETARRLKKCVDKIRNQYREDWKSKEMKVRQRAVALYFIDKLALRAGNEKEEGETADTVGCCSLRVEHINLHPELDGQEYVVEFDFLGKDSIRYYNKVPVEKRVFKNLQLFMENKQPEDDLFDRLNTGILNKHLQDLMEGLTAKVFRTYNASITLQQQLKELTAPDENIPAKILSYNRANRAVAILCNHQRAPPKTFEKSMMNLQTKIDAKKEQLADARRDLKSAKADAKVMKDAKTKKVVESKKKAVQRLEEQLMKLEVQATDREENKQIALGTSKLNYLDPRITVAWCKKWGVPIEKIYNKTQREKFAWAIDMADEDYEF
Description: Test A. Topoisomerase I-mediated DNA Cleavage Assay
Human topoisomerase I was expressed in E. Coli and isolated as a recombinant fusion protein using a T7 expression system as described previously (Makhey, D. et al., Bioorg. Med. Chem., 2000, 8, 1-11). DNA topoisomerase I was purified from calf thymus gland as reported previously (Maniatis, T., et al., J. Molecular Cloning, a Laboratory Manual, Cold Spring Harbor Laboratory, Cold Spring Harbor, N.Y., 149-185). Plasmid YepG was also purified by the alkali lysis method followed by phenol deproteination and CsCl/ethidium isopycnic centrifugation method as described (Maniatis, T.; Fritsch, E. F.; Sambrook, J. Molecular Cloning, a Laboratory Manual; Cold Spring Harbor Laboratory: Cold Spring Harbor, N.Y. 1982; pp 149-185).^102 The end-labeling of the plasmid was accomplished by digestion with a restriction enzyme followed by end-filling with Klenow polymerase as previously described (Liu, L. F.; Rowe, T. C.; Yang, L.; Tewey, K. M.; Chen, G. L. “Cleavage of DNA by mammalian topoisomerase II,” J Biol. Chem. 1983, 258, 15365).^103 Cleavage assays were performed as previously reported (B. Gatto et al. Cancer Res., 1996, 56, 2795-2800).^13 The drug and the DNA in presence of topoisomerase I was incubated for 30 minutes at 37° C. After development of the gels, typically 24-hour exposure was used to obtain autoradiograms outlining the extent of DNA fragmentation. Topoisomerase I-mediated DNA cleavage values are reported as REC, Relative Effective Concentration, i.e. concentrations relative to 2,3-dimethoxy-8,9-methylenedioxybenzo[i]phenanthridine, whose value is arbitrarily assumed as 1.0, that are able to produce the same cleavage on the plasmid DNA in the presence of human topoisomerase I. Relative potency was based upon the relative amount of drug needed to induce approximately 10% DNA fragmentation. Assays were performed under the direction of Dr. L. F. Liu, Department of Pharmacology, The University of Medicine and Dentistry of New Jersey, Robert Wood Johnson Medical School, Piscataway, N.J. Data from Test A for representative compounds of the invention is shown in Table 1.

[1] = test system: human lymphoblast RPMI 8402; assay: MTT-microtiter plate tetrazolinium cytotoxicity assay, RPMI 8402; format: cell-based; settings: continuous exposure 3-4 days
Protocol: (§1) Test B. Inhibition of Cell Growth: MTT-microtiter Plate Tetrazolinium Cytotoxicity Assay (RPMI 8402, CPT-K5, U937, U937/CR Cells)
(§2) The cytotoxicity was determined using the MTT-microtiter plate tetrazolinium cytotoxicity assay (MTA) (See Chen A. Y. et al. Cancer Res. 1993, 53, 1332; Mosmann, T. J., J. Immunol. Methods 1983, 65, 55; and Carmichael, J. et al. Cancer Res. 1987, 47, 936). The human lymphoblast RPMI 8402 and its camptothecin-resistant variant cell line, CPT-K5 were provided by Dr. Toshiwo Andoh (Anchi Cancer Research Institute, Nagoya, Japan) (see Andoh, T.; Okada, K. “Drug resistance mechanisms of topoisomerase I drugs,” Adv. in Pharmacology 1994, 29B, 93). Human U-937 myeloid leukemia cells and U-937/CR cells were described by Rubin et al., J. Biol. Chem., 269, 2433-2439 (1994). The cytotoxicity assay was performed by using 96-well microtiter plates using 2000 cells/well, in […] of growth medium. Cells were grown in suspension at 37° C. in 5% CO2 and maintained by regular passage in RPMI medium supplemented with 10% heat-inactivated fetal bovine serum, L-glutamine (2 mM), penicillin (100U/mL), and streptomycin (0.1 mg/mL). For determination of IC50, cells were exposed continuously for 3-4 days to varying concentrations of drug, and MTT assays were performed at the end of the fourth day. […] All assays were performed at least twice in 6 replicate wells. All assays were performed under the direction of Dr. L. F. Liu, Department of Pharmacology, The University of Medicine and Dentistry of New Jersey, Robert Wood Johnson Medical School, Piscataway, N.J. Representative data is shown in Tables 2 and 3.

[2] = test system: CPT-K5 (camptothecin-resistant variant of RPMI 8402); assay: MTT-microtiter plate tetrazolinium cytotoxicity assay, CPT-K5; format: cell-based; settings: Homo sapiens, continuous exposure 3-4 days
Protocol: as §1, §2

[3] = test system: Human U-937 myeloid leukemia cells; assay: MTT-microtiter plate tetrazolinium cytotoxicity assay, U937; format: cell-based; settings: continuous exposure 3-4 days
Protocol: as §1, §2

U-937/CR cells = assay: MTT-microtiter plate tetrazolinium cytotoxicity assay, U937/CR; format: cell-based; settings: Homo sapiens, continuous exposure 3-4 days
Protocol: as §1, §2

[4] = Homo sapiens, KB 3-1, continuous exposure 3-4 days
[5] = Homo sapiens, KB-V1, continuous exposure 3-4 days
[6] = Homo sapiens, HCT-116, continuous exposure 3-4 days
[7] = Homo sapiens, ZR-75-1, continuous exposure 3-4 days

| Topoisomerase I-mediated DNA cleavage (REC, Relative Effective Concentration) (human topoisomerase I) | melting point | Structure (SMILES) | IC50 (KB3-1 (oral); continuous exposure 3-4 days) | IC50 (KBV-1 (mdr-1); continuous exposure 3-4 days) | IC50 (KBH1.0 + V (H033342r.)) | IC50 (HELA (cervical)) | IC50 (HCT116 (colon); continuous exposure 3-4 days) | IC50 (ZR-75-1 (breast); continuous exposure 3-4 days) | IC50 (KB3-1 (oral); [4]) | IC50 (KBV-1 (mdr-1); [5]) | IC50 (HELA (cervical); Homo sapiens, HeLa) | IC50 (HCT116 (colon); [6]) | IC50 (ZR-75-1 (breast); [7]) | IC50 [1] | IC50 [2] | IC50 [3] | IC50 (U-937/CR cells) |
| --- | --- | --- | --- | --- | --- | --- | --- | --- | --- | --- | --- | --- | --- | --- | --- | --- | --- |
| – | – | CC[C@@]1(O)C(=O)OCc2c1cc1n(c2=O)Cc2cc3ccccc3nc2-1 [CPT] | 6 nM | 6 nM | 7 nM | 4 nM | 3 nM | 4 nM | – | – | – | – | – | – | – | – | – |
| 5 | – | COc1cc2ccc3c4ccccc4nnc3c2cc1OC [Compound 6, 2,3-Dimethoxy-dibenzo[c,h]cinnoline] | – | – | 5000 nM | – | – | – | 6000 nM | 4000 nM | 6000 nM | 3200 nM | 4000 nM | 3000 nM | 10000 nM | 3000 nM | 3000 nM |
| 0.01 | – | COc1cc2ccc3c4cc5c(cc4nnc3c2cc1OC)OCO5 [Compound 14, 2,3-Dimethoxy-8,9-methylenedioxy-dibenzo[c,h]cinnoline] | – | – | 60 nM | – | – | – | 70 nM | 80 nM | 50 nM | 35 nM | 40 nM | 60 nM | 6000 nM | 60 nM | 3000 nM |
| >100 | – | COc1cc2ccc3c4cc(OC)c(OC)cc4nnc3c2cc1OC [Compound 19, 2,3,8,9-Tetramethoxy-dibenzo[c,h]cinnoline] | – | – | – | – | – | – | – | – | – | – | – | 10000 nM | > 10000 nM | 10000 nM | 20000 nM |
| – | – | COc1cc2nnc3c4cc(OC)c(OC)cc4ccc3c2cc1O [Compound 34, 9-Hydroxy-2,3,8-trimethoxydibenzo[c,h]cinnoline] | – | – | – | – | – | – | – | – | – | – | – | > 100000 nM | > 100000 nM | > 100000 nM | > 100000 nM |
| – | 244 to 246 °C | COc1cc2ccc3c4cc(OCc5ccccc5)c(OC)cc4nnc3c2cc1OC [Compound 42, 9-Benzyloxy-2,3,8-trimethoxydibenzo[c,h]cinnoline] | – | – | – | – | – | – | – | – | – | – | – | 38000 nM | 61000 nM | > 100000 nM | 40000 nM |
| – | 258 to 260 °C | COc1ccc2c(ccc3c4cc5c(cc4nnc23)OCO5)c1 [Compound 43, 2-Methoxy-8,9-methylenedioxydibenzo[c,h]cinnoline] | – | – | – | – | – | – | – | – | – | – | – | > 100000 nM | 52000 nM | 38000 nM | 30000 nM |
| – | 259 to 261 °C | COc1ccc2ccc3c4cc5c(cc4nnc3c2c1)OCO5 [Compound 44, 3-Methoxy-8,9-methylenedioxydibenzo[c,h]cinnoline] | – | – | – | – | – | – | – | – | – | – | – | 500 nM | 1300 nM | 43000 nM | 900 nM |
| 2 | 244 to 246 °C | COc1ccc2c(c1)nnc1c3cc(OC)c(OC)cc3ccc21 [Compound 60, 2,3,8-Trimethoxydibenzo[c,h]cinnoline] | – | – | – | – | – | – | – | – | – | – | – | 2000 nM | 4000 nM | 1900 nM | 2500 nM |
| 10 | 215 to 217 °C | COc1ccc2nnc3c4cc(OC)c(OC)cc4ccc3c2c1 [Compound 61, 2,3,9-Trimethoxydibenzo[c,h]cinnoline] | – | – | – | – | – | – | – | – | – | – | – | 4000 nM | 31000 nM | 3000 nM | 6000 nM |
| – | – | CCOc1ccc(-c2nc3ccc(-c4nc5ccc(N6CCN(C)CC6)cc5[nH]4)cc3[nH]2)cc1 [HO33342] | 250 nM | 3000 nM | > 10000 nM | 600 nM | 220 nM | 60 nM | – | – | – | – | – | – | – | – | – |
| – | – | CC[C@]1(O)C[C@@H]2CN(CCc3c([nH]c4ccccc34)[C@@](C(=O)OC)(c3cc4c(cc3OC)N(C)[C@H]3[C@@](O)(C(=O)OC)[C@H](OC(C)=O)[C@]5(CC)C=CCN6CC[C@]43[C@@H]65)C2)C1 [VBS, Vinblastine] | – | – | 2.2 nM | – | – | – | 3 nM | 400 nM | 2 nM | 3 nM | 3 nM | – | – | – | – |
